Several values for one entry are separate records, joined by “and”; a condition that tells them apart may be missing. Equal values may be shown once. Read-outs that look alike come from different tables or passages of the source.
Columns and labels:
[1] = tested on: Picrophilus torridus HPPD "SEQ ID No. 5"; assay: biochemical; assay type: biochemical
(UniProt Q6KZ98) = assay: biochemical; assay type: biochemical, Picrophilus torridus; details: read-out: pI50 (converted)
Wild type tobacco plants [2] = assay: Glasshouse response to bicyclopyrone, injury classes; assay type: in vivo, Nicotiana tabacum; details: WT; 100 g Al/ha, 7 DAT
Text: (§1) Seeds of wild type tobacco plants and T1 tobacco plants carrying the gene from Picrophilus torridus FMP29e coding for HPPD were sown on MS media (Murashige and Skoog […]) supplemented with […] kanamycin. After 4 weeks, rooted green plantlets were transferred to soil and grown for 3 weeks in the glasshouse as described above then sprayed with a mixture containing bicyclopyrone (100 g Al/ha), ammonium sulfate and methyl ester raps oil. The plants were classified in two categories based on the phenotype developed in response to the herbicide seven days after the treatment. […] In this case, only plants containing at least one T-DNA were exposed to the herbicidal treatment.

[3] = tested on: T1 tobacco plants carrying FMP29e from Picrophilus torridus; assay: as above; assay type: in vivo, Nicotiana tabacum; details: 100 g Al/ha, 7 DAT
Text: as §1

[4] = tested on: T1 tobacco plants containing Arabidopsis HPPD; assay: Glasshouse spray trial, herbicidal damage; assay type: in vivo, Nicotiana tabacum; details: not selected for transgene
Procedure: (§2) T0 Tobacco plants containing either the gene from Arabidopsis coding for HPPD or the gene FMP29e from Picrophilus torridus coding for FMP29 HPPD, mentioned above (Example3), were transferred to the glasshouse (28/20° C.), to develop further and produce seeds. Those seeds were harvested and put on soil (ED73 mixed with sand and osmocote Pro) to germinate in the glasshouse (28/20° C.). Three to four weeks later, plantlets were transferred to single pots containing the soil mentioned above. Two weeks later, plants of a size 4-6 cm diameter were sprayed with either • tembotrione at 100 gAl/ha prepared from a WP20 (wettable powder 20%) formulation supplemented with ammonium sulfate and methyl ester raps oil, or • isoxaflutole at 100 gAl/ha prepared from a WP20 formulation supplemented with ammonium sulfate and methyl ester raps oil, or • bicyclopyrone at 100 gAl/ha prepared from a WP20 formulation supplemented with ammonium sulfate and methyl ester raps oil, or • “blind formulation” made from a WP20 formulation without active ingredient (Al) supplemented with ammonium sulfate and methyl ester raps oil, and were then transferred to a growth chamber with adequate light conditions (20000 Lux).
(§3) Table 5: Wild type tobacco plants (A) and Ti populations of tobacco events containing alternatively, the expression cassettes described above having the promoter CaMV 35S, the sequence coding for OTP and the sequence coding for Arabidopsis HPPD (B) or the promoter CaMV35S, the sequence encoding OTP, and the sequence FMP29e coding for the HPPD FMP29 (C). Assessments of herbicidal damage at 7 days after application (DAT) per spray with 100 g Al/ha of tembotrione or isoxaflutole supplemented with ammonium sulfate and methyl ester raps oil. […] Plants belonging to categories (B) and (C) have not been selected for the presence of the respective transgene prior to the herbicide application.

Wild type tobacco plants [5] = assay: Glasshouse spray trial, herbicidal damage; assay type: in vivo, Nicotiana tabacum; details: individual plants, 100% = same bleaching as wild type
Procedure: as §2, §3

[6] = tested on: T1 tobacco plants containing FMP29e (Picrophilus torridus HPPD FMP29); assay: Glasshouse spray trial, herbicidal damage; assay type: in vivo, Nicotiana tabacum; details: for tolerance of plants containing FMP29e gene: 7 DAT, 100 g Al/ha spray; for % injury, 7DAT, 100 g Al/ha: FMP29e, not selected for transgene
Procedure: as §2, §3

[7] = tested on: tobacco calli containing HPPD SEQ ID No. 7 (Picrophilus torridus); assay: Rooting of calli on media with tembotrione; assay type: cell-based, Nicotiana tabacum; details: calli containing SEQ ID No. 7, 6 to 12 weeks
Procedure: (§4) The leaf disks were co-cultivated for 2 days with Agrobacterium tumefaciens cells containing either the binary vector FMP29ebv or AtHPPDbv. Then the leaf disks were transferred to a media allowing the regeneration of shoots for 6 weeks on MS (Musharige and Skoog, (1962), Physiol Plant 15(3): 473-497) media supplemented with BAP (1 mg/mL; Benzylaminopurine), carbenicillin (250 mg/mL), cefotaxine (250 mg/mL), kanamycin (75 mg/mL) and tembotrione (10^−6 M) Regenerated calli were transferred on media to induce the development of roots for 6 to 12 weeks: MS (½), supplemented with carbenicillin (250 mg/mL), cefotaxine (250 mg/mL), kanamycin (75 mg/mL), and tembotrione (10^−6 M).
(§5) Regenerated shoot calli from a cell transformed with a nucleic acid sequence encoding an HPPD comprising SEQ ID No. 11 (Arabidopsis thaliana) or SEQ ID No. 7 (Picrophilus torridus) were transferred to a media inducing root growth which media was further supplemented with the HPPD inhibitor tembotrione for 6 to 12 weeks.

[8] = tested on: tobacco calli containing HPPD SEQ ID No. 11 (Arabidopsis thaliana); assay: Rooting of calli on media with tembotrione; assay type: cell-based, Nicotiana tabacum; details: calli containing SEQ ID No. 11; 6 to 12 weeks
Procedure: as §4, §5

[9] = molecular target: T1, Arabidopsis thaliana HPPD "SEQ ID No. 10" (Arabidopsis thaliana, UniProt P93836); assay: HPPD activity in presence of HPPD inhibitors (spectrophotometric assay of WO 2009/144079); assay type: biochemical
T1 construct: made in house; host or cells: E. coli K-12 BL21 (pQE30-AtHPPD)
T1 sequence (P93836 with tags, fused parts or gaps): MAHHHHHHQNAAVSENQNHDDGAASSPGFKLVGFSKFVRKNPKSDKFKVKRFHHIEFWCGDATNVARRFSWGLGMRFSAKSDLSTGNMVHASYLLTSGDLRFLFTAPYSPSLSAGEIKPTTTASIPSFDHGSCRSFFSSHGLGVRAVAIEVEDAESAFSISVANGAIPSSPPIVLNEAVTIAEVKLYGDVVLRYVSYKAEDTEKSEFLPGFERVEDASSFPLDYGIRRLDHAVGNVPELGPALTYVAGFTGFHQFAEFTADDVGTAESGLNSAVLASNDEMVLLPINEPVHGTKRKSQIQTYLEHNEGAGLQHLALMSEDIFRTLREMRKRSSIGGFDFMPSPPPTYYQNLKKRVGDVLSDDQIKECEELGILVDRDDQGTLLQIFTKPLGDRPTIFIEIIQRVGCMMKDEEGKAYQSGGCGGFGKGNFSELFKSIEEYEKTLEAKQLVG

[10] = SEQ ID No. 5, 5.0 × 10^−6M inhibitor
[11] = FMP29e line 121, plants with at least one T-DNA
[12] = SEQ ID No. 5, 2 mM HPP, 3 minutes incubation, >> = far higher than indicated, not calculable in tested range 2.5 × 10^−6 to 2.5 × 10^−4M

CS(=O)(=O)c1ccc(C(=O)C2C(=O)CCCC2=O)c([N+](=O)[O-])c1 [Mesotrione, 2-[4-(methylsulfonyl)-2-nitrobenzoyl]-1,3-cyclohexanedione]
percentage of inhibition compared to the activity measured in absence of the inhibitor [1]: 84%

COCCOCc1nc(C(F)(F)F)ccc1C(=O)C1=C(O)C2CCC(C2)C1=O (centres unmarked) [Bicyclopyrone, 4-hydroxy-3-[[2-[(2-methoxyethoxy)methyl]-6-(trifluoromethyl)-3-pyridinyl]carbonyl]bicyclo[3.2.1]oct-3-en-2-one]
percentage of inhibition compared to the activity measured in absence of the inhibitor [1, 10]: 24% | IC50 ((UniProt Q6KZ98)): 398 µM | % of tolerant plant (Wild type tobacco plants [2]): 0% | Class I (number of plants, injury: 0-30%) (Wild type tobacco plants [2]): 0 | Class II (number of plants, injury: 31-100%) (Wild type tobacco plants [2]): 12 | tolerance of plants containing the HPPD FMP29 [3]: displayed tolerance | % of tolerant plant ([3]; FMP29e line 121): 2% | Class I (number of plants, injury: 0-30%) [3, 11]: 38 | Class II (number of plants, injury: 31-100%) [3, 11]: 11

CS(=O)(=O)c1cc(C(F)(F)F)ccc1C(=O)C(C#N)C(=O)C1CC1 (centres unmarked) [Diketonitrile, 2-cyano-3-cyclopropyl-1-(2-methylsulphonyl-4-trifluoromethylphenyl)-propane-1,3-dione]
percentage of inhibition compared to the activity measured in absence of the inhibitor [1, 10]: 26% | IC50 ((UniProt Q6KZ98)): 12.6 µM

CS(=O)(=O)c1ccc(C(=O)C2C(=O)CCCC2=O)c(Cl)c1COCC(F)(F)F [Tembotrione, 2-[2-chloro-4-(methylsulfonyl)-3-[(2,2,2,-tri-fluoroethoxy)methyl]benzoyl]-1,3-cyclo-hexanedione]
pI50 [1, 12]: 5.5 | percentage of inhibition compared to the activity measured in absence of the inhibitor [1, 10]: 58% | % injury, 7DAT, 100 g Al/ha ([4]; line 252, individual T1 plants): 30% and 40% (3×) and 50% and 60% (2×) and 70% (2×) and 75% (3×) and 80% | % injury, 7DAT, 100 g Al/ha ([4]; line 258, individual T1 plants): 100% (5×) and 30% | % injury, 7DAT, 100 g Al/ha ([4]; line 327, individual T1 plants): 10% and 20% (2×) and 40% and 50% and 0% and 70% (5×) and 80% (4×) | % injury, 7DAT, 100 g Al/ha (Wild type tobacco plants [5]): 100% | tolerance of plants containing FMP29e gene [6]: far more tolerant | % injury, 7DAT, 100 g Al/ha ([6]; line 115, individual T1 plants): 30% and 40% and 50% (3×) | % injury, 7DAT, 100 g Al/ha ([6]; line 292, individual T1 plants): 20% (2×) and 30% and 40% (2×) | root growth on media supplemented with tembotrione [7]: developed numerous and healthy roots | % Elongation & rooting on 10^−6M tembotrione ([7]; 10^−6M): 65% | root growth on media supplemented with tembotrione [8]: On none of the events

CS(=O)(=O)c1cc(C(F)(F)F)ccc1C(=O)c1cnoc1C1CC1 [Isoxaflutole, (5-cyclopropyl-4-isoxazolyl)[2-(methylsulfonyl)-4-(trifluoromethyl)phenyl]methanone]
% injury, 7DAT, 100 g Al/ha ([4]; line 252, individual T1 plants): 30% and 70% and 95% and 98% (2×) and 99% (4×) and 100% (4×) | % injury, 7DAT, 100 g Al/ha ([4]; line 258, individual T1 plants): 100% | % injury, 7DAT, 100 g Al/ha ([4]; line 327, individual T1 plants): 10% and 20% and 60% (2×) and 70% and 80% and 95% and 98% and 99% and 100% (6×) | % injury, 7DAT, 100 g Al/ha (Wild type tobacco plants [5]): 98% and 99% (2×) and 100% (4×) | tolerance of plants containing FMP29e gene [6]: far more tolerant | % injury, 7DAT, 100 g Al/ha ([6]; line 115, individual T1 plants): 0% and 2% and 5% and 10% and 15% and 30% (2×) and 40% | % injury, 7DAT, 100 g Al/ha ([6]; line 292, individual T1 plants): 20% and 30% and 40%

Cc1nn(C)c(O)c1C(=O)c1ccc(C(F)(F)F)cc1S(C)(=O)=O [Pyrasulfotole]
pI50 [1, 12]: 4.0 | percentage of inhibition compared to the activity measured in absence of the inhibitor [1, 10]: 7% | pI50 ([9]; 2 mM HPP, 3 minutes incubation, >> = far higher than indicated, not calculable in tested range 2.5 × 10^−6 to 2.5 × 10^−4M): 5.4 | percentage of inhibition compared to the activity measured in absence of the inhibitor ([9]; 5.0 × 10^−6M inhibitor): 69%

CS(=O)(=O)c1ccc(C(=O)C2C(=O)CCCC2=O)c(Cl)c1COCC1CCCO1 (centres unmarked) [Tefuryltrione, 2-[2-chloro-4-(methylsulfonyl)-3-[[(tetrahydro-2-furanyl)methoxy]methyl]benzoyl]-1,3-cyclohexanedione]
percentage of inhibition compared to the activity measured in absence of the inhibitor [1, 10]: 87. % | IC50 ((UniProt Q6KZ98)): 3.16 µM

Cc1ccc(C(=O)COc2c(C(=O)c3ccc(Cl)c(C)c3Cl)c(C)nn2C)cc1 [Benzofenap]
percentage of inhibition compared to the activity measured in absence of the inhibitor [1, 10]: 44% | IC50 ((UniProt Q6KZ98)): 15.8 µM

CS(=O)(=O)c1ccc(C(=O)C2C(=O)CCCC2=O)c(Cl)c1 [Sulcotrione, 2-[2-chloro-4-(methylsulfonyl)benzoyl]-1,3-cyclohexanedione]
pI50 [1]: >5.6 | percentage of inhibition compared to the activity measured in absence of the inhibitor [1]: 92%

Reference: patent US20150167016A1, “Plants Tolerant to HPPD Inhibitor Herbicides” (Bayer CropScience AG, priority 2009, published 2015)
